# Assay results from ChEMBL document CHEMBL6109099, “Design, synthesis and biological evaluation of novel hydroxamic acid-derived histone deacetylase inhibitors bearing a 2-oxoindoline scaffold as potential antitumor agents” (Bioorg Med Chem, 2025).
# Structures can show the parent of a compound that is named as a salt. The source made the active and inactive calls. No cut-off for these calls is given here.
# Experiments:
# HCT-116 = test: Cytotoxicity against human HCT-116 cells assessed as reduction in cell viability by SRB assay; assay type: functional, cell-based
# SW-620 [1] = test: Cytotoxicity against human SW620 cells assessed as reduction in cell viability by SRB assay; assay type: functional, cell-based
# Histone deacetylase = test: Inhibition of HDAC in human HeLa cells nuclear extract; assay type: subcellular, Nucleus
# [2] = Cytotoxicity against human MRC5 cells assessed as reduction in cell viability by SRB assay
# SW-620 [3] = test: Induction of apoptosis in human SW620 cells assessed as early apoptotic cells at 5 uM measured after 24 hrs by Annexin V-APC/propidium iodide staining based flow cytometry (reference value: 7.13 to 9.13%); assay type: functional
# SW-620 [4] = test: Potency index, ratio of SAHA IC50 to test compound IC50 for cytotoxicity against human SW620 cells; assay type: functional
# SW-620 [5] = test: Induction of apoptosis in human SW620 cells assessed as necrotic cells at 5 uM measured after 24 hrs by Annexin V-APC/propidium iodide staining based flow cytometry (reference value: 0.2 to 0.42%); assay type: functional
# SW-620 [6] = test: Induction of morphological changes in human SW620 cells assessed as cell rounding at 5 uM measured after 24 hrs; assay type: functional, cell-based
# SW-620 [7] = test: Induction of morphological changes in human SW620 cells assessed as altered membrane fluidity at 5 uM measured after 24 hrs; assay type: functional, cell-based
# SW-620 [8] = test: Induction of morphological changes in human SW620 cells assessed as tighter organelle packing at 5 uM measured after 24 hrs; assay type: functional, cell-based
# SW-620 [9] = test: Induction of morphological changes in human SW620 cells assessed as water extrusion at 5 uM measured after 24 hrs; assay type: functional, cell-based
# SW-620 [10] = test: Cell cycle arrest in human SW620 cells assessed as accumulation of cells at G0/G1-phase at 5 uM measured after 24 hrs by propidium iodide staining based flow cytometry (reference value: 52.39 to 55.88%); assay type: functional
# SW-620 [11] = test: Cell cycle arrest in human SW620 cells assessed as accumulation of cells at G2/M-phase at 5 uM measured after 24 hrs by propidium iodide staining based flow cytometry (reference value: 27.55 to 31.23%); assay type: functional
# SW-620 [12] = test: Induction of morphological changes in human SW620 cells assessed as altered membrane permeability at 5 uM measured after 24 hrs; assay type: functional, cell-based
# SW-620 [13] = test: Induction of morphological changes in human SW620 cells assessed as increase in granularity at 5 uM measured after 24 hrs; assay type: functional, cell-based
# SW-620 [14] = test: Induction of morphological changes in human SW620 cells assessed as cytoplasmic condensation at 5 uM measured after 24 hrs; assay type: functional, cell-based
# SW-620 [15] = test: Induction of morphological changes in human SW620 cells assessed as cell shrinkage at 5 uM measured after 24 hrs; assay type: functional, cell-based
# SW-620 [16] = test: Induction of morphological changes in human SW620 cells assessed as cell clumping at 5 uM measured after 24 hrs; assay type: functional, cell-based
# SW-620 [17] = test: Induction of morphological changes in human SW620 cells assessed as reduction in cell size at 5 uM measured after 24 hrs; assay type: functional, cell-based
# SW-620 [18] = test: Cell cycle arrest in human SW620 cells assessed as accumulation of cells at S-phase at 5 uM measured after 24 hrs by propidium iodide staining based flow cytometry (reference value: 16.38 to 16.91%); assay type: functional
# SW-620 [19] = test: Induction of apoptosis in human SW620 cells assessed as late apoptotic cells at 5 uM measured after 24 hrs by Annexin V-APC/propidium iodide staining based flow cytometry (reference value: 3.47 to 4.55%); assay type: functional
IC50 (Histone deacetylase) [µM],SMILES,IC50 (HCT-116) [µM],IC50 (SW-620 [1]) [µM],IC50 [2] [µM],other results
2.316,O=C(/C=C/c1ccc(CN2C(=O)Cc3ccccc32)cc1)NO,5.72,7.36,> 100,–
–,COc1cccc2c1C(=O)c1c(O)c3c(c(O)c1C2=O)C[C@@](O)(C(=O)CO)C[C@@H]3O[C@H]1C[C@H](N)[C@H](O)[C@H](C)O1 [DOXORUBICIN HYDROCHLORIDE],0.19,0.59,3.93,–
0.047,O=C(CCCCCCN1C(=O)Cc2cc(F)ccc21)NO,3.95,5.71,57.3,–
< 0.001,O=C(CCCCCCN1C(=O)Cc2cc(Br)ccc21)NO,9.96,12.3,30.1,–
0.015,O=C(CCCCCCN1C(=O)Cc2ccccc21)NO,1.68,1.81,17.6,Activity (SW-620 [3]): 23.4%; Ratio IC50 (SW-620 [4]): ~2.5; Activity (SW-620 [5]): 1.85%; Activity (SW-620 [6]): Active; Activity (SW-620 [7]): Active; Activity (SW-620 [8]): Active; Activity (SW-620 [9]): Active; Activity (SW-620 [10]): 32.88%; Activity (SW-620 [11]): 47.54%; Activity (SW-620 [12]): Active; Activity (SW-620 [13]): Active; Activity (SW-620 [14]): Active; Activity (SW-620 [15]): Active; Activity (SW-620 [16]): Active; Activity (SW-620 [17]): Active; Activity (SW-620 [18]): 15.26%; Activity (SW-620 [19]): 28.9%
0.025,COc1ccc2c(c1)CC(=O)N2CCCCCCC(=O)NO,6.44,6.02,24.6,–
0.477,O=C(NO)c1ccc(CN2C(=O)Cc3ccccc32)cc1,7.22,8.18,> 100,–
0.698,O=C(/C=C/c1ccc(CN2C(=O)Cc3cc(Br)ccc32)cc1)NO,3.19,5.21,48.7,–
0.491,O=C(NO)c1ccc(CN2C(=O)Cc3cc(Cl)ccc32)cc1,3.5,6.26,> 100,–
5.012,O=C(/C=C/c1ccc(CN2C(=O)Cc3cc(F)ccc32)cc1)NO,7.46,14.2,> 100,–
0.477,O=C(NO)c1ccc(CN2C(=O)Cc3cc(F)ccc32)cc1,7.6,10.6,> 100,–
2.735,COc1ccc2c(c1)CC(=O)N2Cc1ccc(C(=O)NO)cc1,3.62,8.9,41.4,–
0.007,O=C(CCCCCCN1C(=O)Cc2cc(Cl)ccc21)NO,5.67,4.72,23.1,–
–,O=C(CCCCCCC(=O)Nc1ccccc1)NO [VORINOSTAT],–,–,–,Activity (SW-620 [3]): 26.3%; Activity (SW-620 [5]): 1.53%; Activity (SW-620 [6]): Active; Activity (SW-620 [7]): Active; Activity (SW-620 [8]): Active; Activity (SW-620 [9]): Active; Activity (SW-620 [10]): 41.58%; Activity (SW-620 [11]): 37.58%; Activity (SW-620 [12]): Active; Activity (SW-620 [13]): Active; Activity (SW-620 [14]): Active; Activity (SW-620 [15]): Active; Activity (SW-620 [16]): Active; Activity (SW-620 [17]): Active; Activity (SW-620 [18]): 15.16%; Activity (SW-620 [19]): 24.3%
2.739,O=C(NO)c1ccc(CN2C(=O)Cc3cc(Br)ccc32)cc1,2.78,5.51,21.4,–
0.737,O=C(/C=C/c1ccc(CN2C(=O)Cc3cc(Cl)ccc32)cc1)NO,3.63,7.08,66.4,–
1.043,COc1ccc2c(c1)CC(=O)N2Cc1ccc(/C=C/C(=O)NO)cc1,3.18,10.2,> 100,–
